Measured values published in ChEMBL document CHEMBL1156518, “A mouse model for nonsense mutation bypass therapy shows a dramatic multiday response to geneticin” (Proc Natl Acad Sci U S A, 2007).
Activity calls are given as the source filed them. The calls are words filed in the database; no cut-off is given here.

Tests used:
[1] = system: Mus musculus; assay: Increase in human F9 nonsense R338X mutant antigen level per 100 ul of plasma in C57B/6J mouse model at 7 mg/kg, sc administered daily for 2 days after 2 hrs by ELISA; assay type: functional; settings: route subcutaneous
[2] = system: Mus musculus; assay: Increase in human F9 nonsense R338X mutant antigen coagulant activity in C57B/6J mouse plasma at 7 mg/kg, sc administered daily for 2 days after 2 hrs; assay type: functional; settings: route subcutaneous
[3] = system: Mus musculus; assay: Increase in human F9 nonsense R338X mutant antigen level per 100 ul of plasma in C57B/6J mouse model at 14 mg/kg, sc administered daily for 2 days after 2 hrs by ELISA; assay type: functional; settings: route subcutaneous
[4] = system: Mus musculus; assay: Increase in human F9 nonsense R338X mutant antigen coagulant activity in C57B/6J mouse plasma at 14 mg/kg, sc administered daily for 2 days after 2 hrs; assay type: functional; settings: route subcutaneous
[5] = system: Mus musculus; assay: Increase in human F9 nonsense R338X mutant antigen level per 100 ul of plasma in C57B/6J mouse model at 28 mg/kg, sc administered daily for 2 days after 2 hrs by ELISA; assay type: functional; settings: route subcutaneous
[6] = system: Mus musculus; assay: Increase in human F9 nonsense R338X mutant antigen coagulant activity in C57B/6J mouse plasma at 28 mg/kg, sc administered daily for 2 days after 2 hrs; assay type: functional; settings: route subcutaneous
[7] = system: Mus musculus; assay: Increase in human F9 nonsense R338X mutant antigen level per 100 ul of plasma in C57B/6J mouse model at 28 mg/kg, sc administered daily for 2 days after 9 hrs by ELISA; assay type: functional; settings: route subcutaneous
[8] = system: Mus musculus; assay: Increase in human F9 nonsense R338X mutant antigen coagulant activity in C57B/6J mouse plasma at 28 mg/kg, sc administered daily for 2 days after 9 hrs; assay type: functional; settings: route subcutaneous
[9] = system: Mus musculus; assay: Increase in human F9 nonsense R338X mutant antigen level per 100 ul of plasma in C57B/6J mouse model at 42 mg/kg, sc administered daily for 2 days after 9 hrs by ELISA; assay type: functional; settings: route subcutaneous
[10] = system: Mus musculus; assay: Increase in human F9 nonsense R338X mutant antigen coagulant activity in C57B/6J mouse plasma at 42 mg/kg, sc administered daily for 2 days after 9 hrs; assay type: functional; settings: route subcutaneous
[11] = system: Mus musculus; assay: Increase in human F9 nonsense R338X mutant antigen coagulant activity in C57B/6J mouse plasma at 28 mg/kg, sc administered daily for 7 days after 9 hrs by ELISA; assay type: functional; settings: route subcutaneous
[12] = Half life in C57BL/6J hemophilia B mouse model at 28 mg/kg, sc for 2 days; assay type: ADME, organism-based; parameters: dose 28 mg/kg, route subcutaneous; settings: in vivo
[13] = Elimination half life in C57BL/6J hemophilia B mouse model liver at 28 mg/kg, sc for 2 days; assay type: ADME, organism-based; parameters: dose 28 mg/kg, route subcutaneous
[14] = Toxicity in C57BL/6J hemophilia B mouse model at 28 mg/kg, sc; assay type: organism-based; parameters: dose 28 mg/kg, route subcutaneous; settings: in vivo
[15] = system: Mus musculus; assay: Increase in human F9 nonsense R338X mutant antigen coagulant activity in C57B/6J mouse plasma at 28 mg/kg, sc administered daily for 7 days after 3 hrs by ELISA; settings: route subcutaneous
[16] = system: Mus musculus; assay: Increase in human F9 nonsense R338X mutant antigen coagulant activity in C57B/6J mouse plasma at 28 mg/kg, sc administered daily for 7 days after 9 hrs by ELISA

CN[C@@H]1[C@@H](O)[C@@H](O[C@@H]2[C@@H](O)[C@H](O[C@H]3O[C@H]([C@@H](C)O)[C@@H](O)[C@H](O)[C@H]3N)[C@@H](N)C[C@H]2N)OC[C@]1(C)O [GENETICIN]
Activity [1]: 2.28 ng
Activity [2]: 4.55%
Activity [3]: 5.79 ng
Activity [4]: 6.18%
Activity [5]: 8.75 ng
Activity [6]: 6.94%
Activity [7]: 27.28 ng
Activity [8]: 8.03%
Activity [9]: 13.57 ng
Activity [10]: 4.98%
Activity [11]: 43.9 ng
half-life [12]: 0.25 h
half-life [13]: 80 h
LD50 [14]: 1300 mg/kg
Activity [15]: 22.8 ng
Activity [16]: Active
